Experimental data: ChEMBL document CHEMBL6087465, “Design, Synthesis, and Antitumor Activity Evaluation of 2-Phenylthiazole-5-Carboxylic Acid Derivatives Targeting Transactivation Response RNA-Binding Protein 2” (J Med Chem, 2025)
Activity calls are given as the source filed them. The rule behind the calls is not given here.

What was measured:
[1] = tested on: SK-HEP1; assay: Antiproliferative activity against human SK-HEP1 cells cultured as 3D cells assessed as inhibition of cell growth at 10 uM incubated for 72 hrs by CellTiter-Lumi assay; format: functional, cell-based
[2] = tested on: HCCLM3; assay: Inhibition of cell migration in human HCCLM3 cells at 10 uM incubated for 24 hrs by wound healing assay; format: functional, cell-based
[3] = Acute toxicity in Kunming mouse assessed as pathological change in heart at 100 mg/kg,ip administration measured after 14 days by hematoxylin and eosin staining based microscopic analysis; format: organism-based; conditions: in vivo, 336 h, time 14 day
[4] = Acute toxicity in Kunming mouse assessed as effect on urea level in kidney at 100 mg/kg,ip administration measured after 14 days; format: organism-based; conditions: in vivo, 336 h, time 14 day
[5] = AUC (0 to t) in Sprague-Dawley rat at 10 mg/kg,iv administration by LC-MS/MS analysis; format: ADME, organism-based; conditions: in vivo
[6] = MRT (0 to t) in Sprague-Dawley rat at 25 mg/kg,po administration by LC-MS/MS analysis; format: ADME, organism-based; conditions: in vivo
[7] = Acute toxicity in Kunming mouse assessed as pathological change in lung at 100 mg/kg,ip administration measured after 14 days by hematoxylin and eosin staining based microscopic analysis; format: organism-based; conditions: in vivo, 336 h, time 14 day
[8] = tested on: HCCLM3; assay: Antiproliferative activity against human HCCLM3 cells assessed as upregulation of SMAD7 expression incubated for 24 hrs by Western blotting analysis; format: functional, cell-based
[9] = tested on: SK-HEP1; assay: Inhibition of cell migration in human SK-HEP1 cells incubated for 24 hrs by transwell assay; format: functional, cell-based
[10] = tested on: SK-HEP1; assay: Inhibition of cell migration in human SK-HEP1 cells at 10 uM incubated for 24 hrs by wound healing assay; format: functional, cell-based
[11] = tested on: SK-HEP1; assay: Antiproliferative activity against TARBP2-knockout human SK-HEP1 cells cultured as 3D cells assessed as inhibition of cell growth at 25 uM incubated for 72 hrs by CellTiter-Lumi assay; format: functional, cell-based
[12] = tested on: HCCLM3; assay: Antiproliferative activity against human HCCLM3 cells assessed as downregulation of SMAD2 phosphorylation incubated for 24 hrs by Western blotting analysis; format: functional, cell-based
[13] = Acute toxicity in Kunming mouse assessed as animal death at 100 mg/kg,ip administration measured after 14 days; format: organism-based; conditions: in vivo, 336 h, time 14 day
[14] = tested on: SK-HEP1; assay: Inhibition of cell migration in TARBP2-knockout human SK-HEP1 cells at 1 to 25 uM incubated for 24 hrs by transwell assay; format: functional, cell-based; conditions: dose 1-25 µM
[15] = Acute toxicity in Kunming mouse assessed as effect on uric acid level in kidney at 100 mg/kg,ip administration measured after 14 days; format: organism-based; conditions: in vivo, 336 h, time 14 day
[16] = Acute toxicity in Kunming mouse assessed as pathological change in kidney at 100 mg/kg,ip administration measured after 14 days by hematoxylin and eosin staining based microscopic analysis; format: organism-based; conditions: in vivo, 336 h, time 14 day
[17] = tested on: HCCLM3; assay: Antiproliferative activity against TARBP2-knockout human HCCLM3 cells cultured as 3D cells assessed as inhibition of cell growth at 25 uM incubated for 72 hrs by CellTiter-Lumi assay; format: functional, cell-based
[18] = Acute toxicity in Kunming mouse assessed as pathological change in spleen at 100 mg/kg,ip administration measured after 14 days by hematoxylin and eosin staining based microscopic analysis; format: organism-based; conditions: in vivo, 336 h, time 14 day
[19] = Tmax in Sprague-Dawley rat at 25 mg/kg,po administration by LC-MS/MS analysis; format: ADME, organism-based; conditions: in vivo
[20] = Cmax in Sprague-Dawley rat at 10 mg/kg,iv administration by LC-MS/MS analysis; format: ADME, organism-based; conditions: in vivo
[21] = Acute toxicity in Kunming mouse assessed as effect on lactate dehydrogenase level in heart at 100 mg/kg,ip administration measured after 14 days; format: organism-based; conditions: in vivo, 336 h, time 14 day
[22] = Acute toxicity in Kunming mouse assessed as effect on ALB level in liver at 100 mg/kg,ip administration measured after 14 days; format: organism-based; conditions: in vivo, 336 h, time 14 day
[23] = species on record: Homo sapiens; assay: Inhibition of recombinant human TRBP/recombinant human Dicer protein protein interaction at 25 uM by indirect-competition-ELISA
[24] = tested on: HCCLM3; assay: Antiproliferative activity against human HCCLM3 cells cultured as 3D cells assessed as inhibition of cell growth at 10 uM incubated for 72 hrs by CellTiter-Lumi assay; format: functional, cell-based
[25] = Cmax in Sprague-Dawley rat at 25 mg/kg,po administration by LC-MS/MS analysis; format: ADME, organism-based; conditions: in vivo
[26] = MRT (0 to t) in Sprague-Dawley rat at 10 mg/kg,iv administration by LC-MS/MS analysis; format: ADME, organism-based; conditions: in vivo
[27] = tested on: HCCLM3; assay: Antiproliferative activity against human HCCLM3 cells cultured as 3D cells assessed as inhibition of cell growth at 25 uM incubated for 72 hrs by CellTiter-Lumi assay; format: functional, cell-based
[28] = tested on: HCCLM3; assay: Antiproliferative activity against human HCCLM3 cells assessed as downregulation of SMAD3 phosphorylation incubated for 24 hrs by Western blotting analysis; format: functional, cell-based
[29] = Acute toxicity in Kunming mouse assessed as effect on AST level in liver at 100 mg/kg,ip administration measured after 14 days; format: organism-based; conditions: in vivo, 336 h, time 14 day
[30] = MRT (0 to infinity) in Sprague-Dawley rat at 25 mg/kg,po administration by LC-MS/MS analysis; format: ADME, organism-based; conditions: in vivo
[31] = Acute toxicity in Kunming mouse assessed as effect on creatinine level in kidney at 100 mg/kg,ip administration measured after 14 days; format: organism-based; conditions: in vivo, 336 h, time 14 day
[32] = tested on: SK-HEP1; assay: Antiproliferative activity against human SK-HEP1 cells cultured as 3D cells assessed as inhibition of cell growth at 25 uM incubated for 72 hrs by CellTiter-Lumi assay; format: functional, cell-based
[33] = MRT (0 to infinity) in Sprague-Dawley rat at 10 mg/kg,iv administration by LC-MS/MS analysis; format: ADME, organism-based; conditions: in vivo
[34] = Acute toxicity in Kunming mouse assessed as effect on ALT level in liver at 100 mg/kg,ip administration measured after 14 days; format: organism-based; conditions: in vivo, 336 h, time 14 day
[35] = Tmax in Sprague-Dawley rat at 10 mg/kg,iv administration by LC-MS/MS analysis; format: ADME, organism-based; conditions: in vivo
[36] = tested on: HCCLM3; assay: Antiproliferative activity against human HCCLM3 cells cultured as 2D cells assessed as inhibition of cell growth at 10 uM incubated for 72 hrs by CCK-8 assay; format: functional, cell-based
[37] = tested on: HCCLM3; assay: Antiproliferative activity against human HCCLM3 cells cultured as 3D cells assessed as inhibition of colony formation at 25 uM incubated for 21 days by 3D soft-agar based microscopic analysis; format: functional, cell-based; conditions: time 21.0 day
[38] = Acute toxicity in Kunming mouse assessed as effect on total bilirubin level in liver at 100 mg/kg,ip administration measured after 14 days; format: organism-based; conditions: in vivo, 336 h, time 14 day
[39] = tested on: HCCLM3; assay: Inhibition of cell migration in TARBP2-knockout human HCCLM3 cells at 1 to 25 uM incubated for 24 hrs by transwell assay; format: functional, cell-based; conditions: dose 1-25 µM
[40] = Oral bioavailability in Sprague-Dawley rat at 25 mg/kg administration by LC-MS/MS analysis; format: ADME, organism-based; conditions: in vivo
[41] = Clearance in Sprague-Dawley rat at 10 mg/kg,iv administration by LC-MS/MS analysis; format: ADME, organism-based; conditions: in vivo
[42] = AUC (0 to infinity) in Sprague-Dawley rat at 25 mg/kg,po administration by LC-MS/MS analysis; format: ADME, organism-based; conditions: in vivo
[43] = tested on: HCCLM3; assay: Inhibition of cell migration in human HCCLM3 cells incubated for 24 hrs by transwell assay; format: functional, cell-based
[44] = AUC (0 to infinity) in Sprague-Dawley rat at 10 mg/kg,iv administration by LC-MS/MS analysis; format: ADME, organism-based; conditions: in vivo

Cc1nc(-c2ccc(N3CCOCC3)cc2)sc1C(=O)O
Activity [1]: Active | inhibition [2]: Active | Activity [3]: Non-toxic | Activity [4]: Non-toxic | AUC(0-t) [5]: 37400 ng·h/mL | MRT last [6]: 3.5 h | Activity [7]: Non-toxic | Activity [8]: Dose-dependent-effect | inhibition [9]: Dose-dependent-effect | inhibition [10]: Active | Activity [11]: inactive | Activity [12]: Dose-dependent-effect | Activity [13]: Non-toxic | inhibition [14]: inactive | Activity [15]: Non-toxic | Activity [16]: Non-toxic | Activity [17]: inactive | Activity [18]: Non-toxic | Tmax [19]: 0.42 h | Cmax [20]: 45900 ng/mL | Activity [21]: Non-toxic | Activity [22]: Non-toxic | inhibition [23]: Active | Activity [24]: Active | Cmax [25]: 19800 ng/mL | MRT last [26]: 1.7 h | Activity [27]: Active | Activity [28]: Dose-dependent-effect | Activity [29]: Non-toxic | MRT inf [30]: 3.7 h | Activity [31]: Non-toxic | Activity [32]: Active | MRT inf [33]: 1.8 h | Activity [34]: Non-toxic | Tmax [35]: 4.8 min | Activity [36]: inactive | Activity [37]: Active | Activity [38]: Non-toxic | inhibition [39]: inactive | bioavailability [40]: 53.9% | clearance [41]: 4.6 mL/min/kg | AUC(0-inf) [42]: 50600 ng·h/mL | inhibition [43]: Dose-dependent-effect | AUC(0-inf) [44]: 37500 ng·h/mL

CCOc1ccc(-c2nc(C)c(C(=O)O)s2)cc1
Activity [1]: Active | inhibition [2]: Active | Activity [3]: Non-toxic | Activity [4]: Non-toxic | AUC(0-t) [5]: 9730 ng·h/mL | MRT last [6]: 2.6 h | Activity [7]: Non-toxic | Activity [8]: Dose-dependent-effect | inhibition [9]: Dose-dependent-effect | inhibition [10]: Active | Activity [11]: inactive | Activity [12]: Dose-dependent-effect | Activity [13]: Non-toxic | inhibition [14]: inactive | Activity [15]: Non-toxic | Activity [16]: Non-toxic | Activity [17]: inactive | Activity [18]: Non-toxic | Tmax [19]: 0.3 h | Cmax [20]: 34900 ng/mL | Activity [21]: Non-toxic | Activity [22]: Non-toxic | inhibition [23]: Active | Activity [24]: Active | Cmax [25]: 2210 ng/mL | MRT last [26]: 0.1 h | Activity [27]: Active | Activity [28]: Dose-dependent-effect | Activity [29]: Non-toxic | MRT inf [30]: 3.9 h | Activity [31]: Non-toxic | Activity [32]: Active | MRT inf [33]: 0.2 h | Activity [34]: Non-toxic | Tmax [35]: 6 min | Activity [36]: inactive | Activity [37]: Active | Activity [38]: Non-toxic | inhibition [39]: inactive | bioavailability [40]: 11% | clearance [41]: 17.1 mL/min/kg | AUC(0-inf) [42]: 3080 ng·h/mL | inhibition [43]: Dose-dependent-effect | AUC(0-inf) [44]: 9740 ng·h/mL
